Data set [1] relates to HeLa cells. The format is cell-based, human. To be noted: 1 uM, pH 6.2, 1.5 h.
Data set [2] is classed as physicochemical. The settings on record: absorbance at 300 nm. As to the method:
Peptides were labeled at the C-terminal Cys residues using the membrane-impermeable compound maleimide-PEG2-biotin (Thermo Scientific), which has a long polar spacer arm of 29.1 Å that allows adequate biotin binding to avidin. The synthesis reaction was performed in 10 mM phosphate buffer, pH 7.5 (overnight incubation at 4° C.). Reaction products were purified by HPLC, and the mass of the biotin-labeled peptides checked by MALDI-TOF mass spectrometry. The octanol/water partition coefficient of maleimide-PEG2-biotin was determined experimentally by measuring the absorbance at 300 nm in the aqueous and octanol (previously pre-equilibrated with water) phases after a 2 h vortexing. A log P value of −1.07±0.02 was obtained. […] (Kuyper et al., 2006, J. Am. Chem. Soc. 128(10), 3233-40).

Data set [3] is classed as in vitro ADME. The settings on record: pH 6.2.
In data set [4] the test system is HeLa cells.
In a further data set the test system is JC cells. To be noted: pH 6.1.
In a further data set the target is actin filaments. To be noted: read-out: Kd, binding to actin filaments; cited from earlier work.
Data set [5] is described as follows: physchem.
The subject of data set [6] is tumor. The settings on record: in vivo.
A short description of data set [7]: physchem. The source holds these as a separate data set.
In data set [8] the test system is tumor. Briefly: Animal studies of variants: tumor/organ fluorescence 4 and 24 h post-injection. The settings on record: after 24 hours.
The nature of data set [9]: Stopped-flow fluorescence and CD kinetics of insertion/folding and exit/unfolding. It is filed as physicochemical.
A short description of data set [10]: Analytical ultracentrifugation, sedimentation velocity. The format is physicochemical. The settings on record: 7 μM, pH 8.
The test system of data set [11] is HeLa cells. The format is cell-based, human.
For another data set, the system named is GFP fluorescent tumors. To be noted: mouse, in vivo.
The conditions of data set [12]: mouse, in vivo.
Data set [13] addresses Rabbit muscle actin, polymerized filamentous actin (F-actin) (rabbit) (UniProt P68135). Briefly: fluorescence anisotropy (ex 570 nm / em 610 nm), titration of phallTxR by F-actin; value for unbound tracer. (In general: Polarisation of emitted light reports the rotation of a fluorescent probe.)
The target is the same in data set [14]. The experiment in a line: fluorescence anisotropy (ex 570 nm / em 610 nm), separate titration of phallTxR by F-actin without competitor; value for fully bound tracer.
Data set [15] in a line: Membrane affinity and insertion kinetics of variants Var1-16. The settings on record: relative to WT pHLIP. It is filed as physicochemical.
For another data set, the system named is HeLa tumors. The settings on record: mouse, in vivo.
For data set [16] the following is noted: in vivo; cited from earlier work.
Data set [17] has as its system luciferase pre-mRNA aberrant splice sites in HeLa cells. It is filed as cell-based, human.

Read-outs that look alike come from different tables or passages of the source. *1 amine or outer side, *2 acyl side, *3 side chain or, on linkers, in order; H or OH if unused. Where a SMILES comes first, the peptide text is derived from it. Bridges are numbered along the chain shown (N, C = ends). Where no end group is shown, it is not given here. [ ]: non-standard residue; d: D form. ξ: configuration not given here. ξTrp(2-yl) = O=C(C(Cc1c([*:3])[nH]c2ccccc12)N[*:1])[*:2]; X1 = CC(O)(CO)CC(N[*:1])C(=O)[*:2]; Hyp = O=C(O)[CH]1C[CH](O)CN1 Where only a bound is given, the exact number is not on record here.

On to `CC[C@H](C)[C@@H]1NC(=O)CNC(=O)[C@@H]2Cc3c([nH]c4cc(O)ccc34)[S@+]([O-])C[C@H](NC(=O)CNC1=O)C(=O)N[C@@H](CC(N)=O)C(=O)N1C[C@H](O)C[C@H]1C(=O)N[C@@H]([C@@H](C)[C@@H](O)CO)C(=O)N2` [amanitin, α-amanitin], for which the “cell growth after treatment (ECIS)” value in the data set on HeLa cells [1] was “continue to grow”.

For `O=C(CCCC[C@@H]1SC[C@@H]2NC(=O)N[C@@H]21)NCCOCCOCCNC(=O)CCN1C(=O)C=CC1=O` [maleimide-PEG2-biotin], the “log P (octanol/water)” value in [2] is listed as −1.07±0.02.

Take `CC[C@H](C)[C@H](NC(=O)[C@@H]1CCCN1C(=O)[C@H](CC(N)=O)NC(=O)[C@H](CCC(N)=O)NC(=O)[C@H](CCC(=O)O)NC(=O)[C@H](C)NC(=O)[C@H](C)NC(C)=O)C(=O)N[C@@H](Cc1ccc(O)cc1)C(=O)N[C@@H](Cc1c[nH]c2ccccc12)C(=O)N[C@@H](C)C(=O)N[C@@H](CCCNC(=N)N)C(=O)N[C@@H](Cc1ccc(O)cc1)C(=O)N[C@@H](C)C(=O)N[C@@H](CC(=O)O)C(=O)N[C@@H](Cc1c[nH]c2ccccc12)C(=O)N[C@@H](CC(C)C)C(=O)N[C@@H](Cc1ccccc1)C(=O)N[C@H](C(=O)N[C@H](C(=O)N1CCC[C@H]1C(=O)N[C@@H](CC(C)C)C(=O)N[C@@H](CC(C)C)C(=O)N[C@@H](CC(C)C)C(=O)N[C@@H](CC(C)C)C(=O)N[C@@H](CC(=O)O)C(=O)N[C@@H](CC(C)C)C(=O)N[C@@H](C)C(=O)N[C@@H](CC(C)C)C(=O)N[C@@H](CC(C)C)C(=O)N[C@H](C(=O)N[C@@H](CC(=O)O)C(=O)N[C@@H](C)C(=O)N[C@@H](CC(=O)O)C(=O)N[C@@H](CCC(=O)O)C(=O)NCC(=O)N[C@H](C(=O)N[C@@H](CCCCNC(=O)c1ccc(-c2c3ccc(N(C)C)cc3[o+]c3cc(N(C)C)ccc23)c(C(=O)[O-])c1)C(=O)N[C@@H](CSSCCC(=O)NC[C@](C)(O)C[C@@H]1NC(=O)[C@@H]2Cc3c([nH]c4ccccc34)SC[C@H](NC(=O)[C@@H]([C@H](C)O)NC(=O)[C@H](C)NC1=O)C(=O)N1C[C@@H](O)C[C@H]1C(=O)N[C@@H](C)C(=O)N2)C(=O)NCC(=O)O)[C@@H](C)O)C(C)C)[C@@H](C)O)[C@@H](C)O` [pHLIP-K(rho)C(aph)]: in data set [3], the “decomposition during cell incubation (HPLC)” value was “no detectable decomposition”. Besides, the “effect on cell growth” value in the data set on HeLa cells [4] (pH 7.4) is on record as “did not have any effect on cell growth”. Besides, in the data set with JC cells, the “inhibition of JC growth” value is 78%. Also, the “inhibition of M4A4 proliferation” value in the data set on M4A4 cells (pH 6.2) turned out to be 92%. The multinucleation result in the data set with HeLa or M4A4 cells is given as “became multinucleated”. The “cytoskeletal immobilization on trypsinization / cytotoxic morphology” value in the data set with HeLa or M4A4 cells (pH 6.1) is recorded as “exhibited a reduced ability to contract”.

For the molecule `CC1NC(=O)C(CC(C)(O)CO)NC(=O)C2Cc3c([nH]c4ccccc34)SCC(NC(=O)C(C(C)O)NC1=O)C(=O)N1CC(O)CC1C(=O)NC(C)C(=O)N2` (stereo not drawn) [phalloidin] (cyclo([X1]ATC[Hyp]A[ξTrp(2-yl)]); thioether 4-7; configuration not given here), the “inhibitory effect on HeLa proliferation” value in the data set with HeLa cells [4] is “no inhibitory effect”. For the same molecule, the “inhibitory effect on M4A4 proliferation” value with M4A4 cells is on record as “no inhibitory effect”. Also, the Kd at actin filaments is less than 40 nM. Moreover, in the data set “physchem [5]”, the logP is -1.5.

As to “AAEQNPIYWARYADWLFTTGLLLLDLALLVDADEGT [P20G]”, in the data set on tumor [6], the “Findings: biodistribution / blood clearance” value was “Goes the liver”. For the same molecule, the pKa in the data set “physchem [7]” is approximately 6.7.

Consider ACDDQNPWRAYLDLLFPTDTLLLDLLW [Var3-3D], for which the retention in kidney entry with tumor [8] is “also retained in the kidney after 24 hours”.

On to “ACEEQNPWARYLEWLFPTETLLLEL [Cys-Short-3E]”, for which, in the data set on tumor [8], the retention in kidney entry is recorded as “also retained in the kidney after 24 hours”.

Take “H-GGEQNPIYWARYADWLFTTPLLLLDLALLVDADEGT-OH [pHLIP]”: the “pH range over which titration occurs” value is approximately 1 pH unit. Also, the “interfacial helix formation time” value in data set [9] was 0.1 s. The “oligomer share of total population” value in data set [10] was approximately 6%. Further, the “recruitment of anti-DNP antibodies, pH 6.2 versus pH 7.4 (times more)” value with HeLa cells [11] is recorded as “not capable of significantly recruiting”. The “inhibitory effect on HeLa proliferation” value in the data set with HeLa cells [4] is “no inhibition of proliferation was observed”. In addition, in the data set on GFP fluorescent tumors, the “toxic effects in mice” value is reported as “did not induce any toxic effects”. In addition, in [12], the adverse effects result is given as “did not show any adverse effects”.

With Texas Red-X phalloidin (peptide), the values for the fluorescence anisotropy in data set [13] and in data set [14] were 0.04 and 0.24, respectively.

Regarding “WT-reverse (TEDADVLLALDLLLLPTTFLWDAYRAWYPNQECA)”, the “Findings: Inserts into membrane, times faster than WT” value in data set [15] is “Inserts into membrane 10 times”.

Turning to gold nanoparticles, in the data set on HeLa tumors, the “amount of gold, Bladder” value is given as 0.010 ± 0.094 % of injected dose per gram of tissue; the “amount of gold, Blood” value is 0.028 ± 0.028 % of injected dose per gram of tissue; the “amount of gold, Heart” value is recorded as 0.075 ± 0.010 % of injected dose per gram of tissue; the “amount of gold, Intestine” value is recorded as 0.034 ± 0.021 % of injected dose per gram of tissue. Moreover, in the data set with HeLa tumors, the “amount of gold, Kidney” value is 1.561 ± 0.098 % of injected dose per gram of tissue; the “amount of gold, Liver” value is listed as 0.082 ± 0.082 % of injected dose per gram of tissue; the “amount of gold, Lung” value was 0.119 ± 0.025 % of injected dose per gram of tissue; the “amount of gold, Muscle” value is recorded as 1.836 ± 0.071 % of injected dose per gram of tissue. Also, in the data set on HeLa tumors, the “amount of gold, Skin” value was 0.129 ± 0.041 % of injected dose per gram of tissue; the “amount of gold, Spleen” value is on record as 0.097 ± 0.039 % of injected dose per gram of tissue; the “amount of gold, Stomach” value is on record as 0.012-30.011 % of injected dose per gram of tissue. Also, in the data set on HeLa tumors (iv), the “amount of gold, Bladder” value was 0.050 ± 0.050 % of injected dose per gram of tissue; the “amount of gold, Blood” value is 0.091 ± 0.020 % of injected dose per gram of tissue; the “amount of gold, Heart” value was 0.069 ± 0.004 % of injected dose per gram of tissue; the “amount of gold, Intestine” value was 0.073 ± 0.002 % of injected dose per gram of tissue. Further, in the data set with HeLa tumors (iv), the “amount of gold, Kidney” value is given as 1.206 ± 0.078 % of injected dose per gram of tissue; the “amount of gold, Liver” value was 0.392 ± 0.031 % of injected dose per gram of tissue; the “amount of gold, Lung” value is on record as 0.128 ± 0.000 % of injected dose per gram of tissue; the “amount of gold, Muscle” value is listed as 0.053 ± 0.005 % of injected dose per gram of tissue. In addition, in the data set on HeLa tumors (iv), the “amount of gold, Skin” value was 0.204 ± 0.029 % of injected dose per gram of tissue; the “amount of gold, Spleen” value is given as 0.089 ± 0.045 % of injected dose per gram of tissue; the “amount of gold, Stomach” value was 0.081 ± 0.000 % of injected dose per gram of tissue. Besides, the LD50 entry in data set [16] is “approximately 3.2 g Au kg^−1”.

As to “pHLIP-S—S-CCTCTTACCTCAGTTACA (all peptide nucleic acid (PNA); pHLIP peptide disulfide-linked to the PNA, end not given here) [pHLIP-PNA construct]”, in [17], the “luciferase activity localized to tumor sites” value is “significantly higher luciferase activity” and the “uptake by cells in vivo compared to other constructs” value was “Significantly greater amounts”.

The term Kd denotes a measure of binding affinity in units of concentration. As a reminder, the logP is the decadic logarithm of the partition coefficient of the neutral form, usually between octanol and water. A lower logP goes with a more hydrophilic compound. A word on the pKa: it is the pH at which an ionisable group is half protonated. Low readings indicate a stronger acid or weaker base, high ones a weaker acid or stronger base.

The values above are taken from patent publication US20160256560A1, “Environmentally Sensitive Compositions” (priority 2010, published 2016).
